The results in this text go back to the supplement of paper PMC10307832.

Holding throughout (experiment): relative viability (nuclei count vs DMSO), 5 days (fraction); higher = more cells survive
Compound in one assay: CC[C@@H](C)CNCC(=O)N1CCC2=C([C@@H]1COC3=CC=CC(=C3)C)C=CS2 [RU-SKI 43]
The method in brief: (§1)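 On vehicle-anchored 1536-well plates, lung cancer cell lines held overnight at 37 °C were pinned with five library-drug doses (not always all listed) spaced by √10. With no medium change over 5 days, they were then fixed, permeabilised and Hoechst-stained in one step and imaged at 4×. MetaXpress counted nuclei, and viability is the median across plates of treated-well over vehicle-well nuclei. Acceptance needed control CV below 25% and at least one doubling.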

Compound in another assay: CCc1c2c(nc3ccc(OC(=O)N4CCC(N5CCCCC5)CC4)cc13)-c1cc3c(c(=O)n1C2)COC(=O)[C@]3(O)CC [Irinotecan]
The method in brief:
as §1

Compound in another assay: Cn1cc(-c2cnc3ccc4ccc(CS(=O)(=O)NCc5ccccn5)cc4c(=O)c3c2)cn1 [MK-8033]
The method in brief: as §1

For the cell line NCI-H1648, the relative viability with RU-SKI 43 (0.1 µM) was determined as 0.943; in the assay with RU-SKI 43 (0.3162 µM), 0.809; with RU-SKI 43 (1 µM) it was 1.03; in the assay with RU-SKI 43 (3.162 µM), 0.853; with RU-SKI 43 (10 µM), 0.779; in the assay with Irinotecan (0.6325 µM) it was 1.03. Besides, the relative viability turned out to be 0.712 in the assay with Irinotecan (2 µM); 0.637 in the assay with Irinotecan (6.325 µM); 0.278 with Irinotecan (20 µM); 0.724 with MK-8033 (0.02 µM); 0.698 with MK-8033 (0.06325 µM); 0.846 with MK-8033 (0.2 µM). Also, the relative viability with MK-8033 (0.6325 µM) was determined as 0.832; with MK-8033 (2 µM), 0.956.

On to NCI-H1650, for which the relative viability in the assay with RU-SKI 43 (0.1 µM) was 0.942; with RU-SKI 43 (0.3162 µM), 0.999; with RU-SKI 43 (1 µM) it was 1.04; in the assay with RU-SKI 43 (3.162 µM), 0.977; with RU-SKI 43 (10 µM), 0.853; with Irinotecan (0.6325 µM), 0.677. For the same cell line, the relative viability was found to be 0.836 with Irinotecan (2 µM); 0.489 with Irinotecan (6.325 µM); 0.21 with Irinotecan (20 µM); 0.942 in the assay with MK-8033 (0.02 µM); 0.714 with MK-8033 (0.06325 µM); 0.853 with MK-8033 (0.2 µM). In addition, the relative viability worked out at 0.842 with MK-8033 (0.6325 µM) and 0.848 with MK-8033 (2 µM).

Turning to NCI-H1651, the relative viability stood at 0.931 with RU-SKI 43 (0.1 µM); 1.01 in the assay with RU-SKI 43 (0.3162 µM); 1.08 in the assay with RU-SKI 43 (1 µM); 1.09 in the assay with RU-SKI 43 (3.162 µM); 0.927 with RU-SKI 43 (10 µM); 0.676 with Irinotecan (0.6325 µM). Moreover, the relative viability with Irinotecan (2 µM) was 0.779; with Irinotecan (6.325 µM), 0.458; in the assay with Irinotecan (20 µM), 0.172; in the assay with MK-8033 (0.02 µM), 1.01; in the assay with MK-8033 (0.06325 µM), 0.944; in the assay with MK-8033 (0.2 µM), 0.934. The relative viability with MK-8033 (0.6325 µM) was 1.06; with MK-8033 (2 µM), 0.971.

With NCI-H1666, the relative viability with RU-SKI 43 (0.1 µM) turned out to be 0.953; with RU-SKI 43 (0.3162 µM), 0.954; with RU-SKI 43 (1 µM), 0.967; with RU-SKI 43 (3.162 µM) it was 1.04; with RU-SKI 43 (10 µM), 0.865; with Irinotecan (0.6325 µM), 0.889. The relative viability with Irinotecan (2 µM) came out at 0.763; with Irinotecan (6.325 µM), 0.573; with Irinotecan (20 µM), 0.459; with MK-8033 (0.02 µM) it was 0.984; in the assay with MK-8033 (0.06325 µM) it was 0.94; in the assay with MK-8033 (0.2 µM), 0.945. In addition, the relative viability came out at 0.947 with MK-8033 (0.6325 µM) and 0.96 in the assay with MK-8033 (2 µM).

Turning to NCI-H1703, the relative viability came to 0.82 with RU-SKI 43 (0.1 µM); 1.23 in the assay with RU-SKI 43 (0.3162 µM); 0.854 in the assay with RU-SKI 43 (1 µM); 0.972 with RU-SKI 43 (3.162 µM); 0.52 with RU-SKI 43 (10 µM); 0.761 with Irinotecan (0.6325 µM). In addition, the relative viability was determined as 1.32 in the assay with Irinotecan (2 µM); 0.613 with Irinotecan (6.325 µM); 0.205 in the assay with Irinotecan (20 µM); 0.896 in the assay with MK-8033 (0.02 µM); 0.85 with MK-8033 (0.06325 µM); 0.825 in the assay with MK-8033 (0.2 µM). The relative viability in the assay with MK-8033 (0.6325 µM) was determined as 0.911; with MK-8033 (2 µM), 0.855.

On to NCI-H1734, for which the relative viability with RU-SKI 43 (0.1 µM) was found to be 0.961; in the assay with RU-SKI 43 (0.3162 µM), 1.05; in the assay with RU-SKI 43 (1 µM), 1.03; with RU-SKI 43 (3.162 µM) it was 1.07; with RU-SKI 43 (10 µM), 0.88; in the assay with Irinotecan (2 µM) it was 0.77. The relative viability stood at 0.195 in the assay with Irinotecan (6.325 µM); 0.181 with Irinotecan (20 µM); 1.1 with MK-8033 (0.02 µM); 0.845 with MK-8033 (0.06325 µM); 0.944 in the assay with MK-8033 (0.2 µM); 0.993 with MK-8033 (0.6325 µM). Also, the relative viability with MK-8033 (2 µM) came to 0.985.

NCI-H1755: the relative viability in the assay with RU-SKI 43 (0.1 µM) is 1.03; in the assay with RU-SKI 43 (0.3162 µM), 1.03; with RU-SKI 43 (1 µM) it was 1.1; in the assay with RU-SKI 43 (3.162 µM) it was 1.1; with RU-SKI 43 (10 µM), 1; in the assay with Irinotecan (0.6325 µM), 0.966. Also, the relative viability came to 0.984 with Irinotecan (2 µM); 0.433 with Irinotecan (6.325 µM); 0.408 in the assay with Irinotecan (20 µM); 0.982 in the assay with MK-8033 (0.02 µM); 1.02 with MK-8033 (0.06325 µM); 0.945 in the assay with MK-8033 (0.2 µM). For the same cell line, the relative viability in the assay with MK-8033 (0.6325 µM) is 0.973; with MK-8033 (2 µM) it was 0.974.
